# Data reported in the supplement of paper PMC10307832.
# Assays:
# Test in all cases: relative viability (nuclei count vs DMSO), 5 days (fraction); higher = more cells survive
# [1] = tested on: 201T
# In short: (§1)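 One day after seeding in 1536-well plates, lung cancer cell lines were dosed by pin tool. Dosing was either single-drug or a fixed anchor-drug dose plus five library-drug doses (not always all listed) in √10 steps. After 5 days, nuclei were stained in one fix-and-stain step and counted on 4× images, and relative viability is the nuclei count of treated wells over that of vehicle wells, given as the median of duplicate plates.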
# [2] = tested on: HCC-44
# In short: as §1
# [3] = tested on: HCC-15
# In short: as §1
# [4] = tested on: EKVX
# In short: as §1
# [5] = tested on: BEN
# In short: as §1
# [6] = tested on: A-427
# In short: as §1
# [7] = tested on: SW 900
# In short: as §1
# [8] = tested on: NCI-H441
# In short: as §1
# [9] = tested on: HARA
# In short: as §1
# [10] = tested on: NCI-H1792
# In short: as §1
# [11] = tested on: NCI-H650
# In short: as §1
# [12] = tested on: NCI-H596
# In short: as §1
# [13] = tested on: NCI-H23
# In short: as §1
# [14] = tested on: NCI-H358
# In short: as §1
# [15] = tested on: NCI-H2342
# In short: as §1
# [16] = tested on: HCC-827
# In short: as §1
# [17] = tested on: NCI-H838
# In short: as §1
# [18] = tested on: NCI-H1437
# In short: as §1
# [19] = tested on: NCI-H1975
# In short: as §1
smiles,measurement,setting,value
Cc1sc2c(c1C)C(c1ccc(Cl)cc1)=N[C@@H](CC(=O)OC(C)(C)C)c1nnc(C)n1-2 [JQ1] + NC(=O)Nc1cc(-c2cccc(F)c2)sc1C(=O)N[C@H]1CCCNC1 [AZD7762] (partner 0.2 µM),relative viability,[1]; first compound 0.04 µM,0.716
same,relative viability,[1]; first compound 0.4 µM,0.7
same,relative viability,[1]; first compound 1.265 µM,0.498
same,relative viability,[1]; first compound 4 µM,0.393
same,relative viability,[2]; first compound 0.04 µM,0.987
same,relative viability,[2]; first compound 0.1265 µM,1.14
same,relative viability,[2]; first compound 0.4 µM,1.06
same,relative viability,[2]; first compound 1.265 µM,1.09
same,relative viability,[2]; first compound 4 µM,0.76
same,relative viability,[3]; first compound 0.04 µM,1.32
same,relative viability,[3]; first compound 0.1265 µM,0.924
same,relative viability,[3]; first compound 0.4 µM,0.978
same,relative viability,[3]; first compound 1.265 µM,0.512
same,relative viability,[3]; first compound 4 µM,0.742
same,relative viability,[4]; first compound 0.04 µM,0.721
same,relative viability,[4]; first compound 0.1265 µM,0.794
same,relative viability,[4]; first compound 0.4 µM,1.03
same,relative viability,[4]; first compound 1.265 µM,0.793
same,relative viability,[4]; first compound 4 µM,0.455
same,relative viability,[5]; first compound 0.04 µM,0.718
same,relative viability,[5]; first compound 0.1265 µM,0.585
same,relative viability,[5]; first compound 0.4 µM,0.644
same,relative viability,[5]; first compound 1.265 µM,0.468
same,relative viability,[5]; first compound 4 µM,0.372
same,relative viability,[6]; first compound 0.04 µM,0.749
same,relative viability,[6]; first compound 0.1265 µM,0.611
same,relative viability,[6]; first compound 0.4 µM,0.594
same,relative viability,[6]; first compound 1.265 µM,0.516
same,relative viability,[6]; first compound 4 µM,0.416
same,relative viability,[7]; first compound 0.04 µM,0.562
same,relative viability,[7]; first compound 0.1265 µM,0.556
same,relative viability,[7]; first compound 0.4 µM,0.309
same,relative viability,[7]; first compound 1.265 µM,0.2
same,relative viability,[7]; first compound 4 µM,0.147
same,relative viability,[8]; first compound 0.04 µM,1.07
same,relative viability,[8]; first compound 0.1265 µM,1.16
same,relative viability,[8]; first compound 0.4 µM,1.04
same,relative viability,[8]; first compound 1.265 µM,0.369
same,relative viability,[8]; first compound 4 µM,0.249
same,relative viability,[9]; first compound 0.04 µM,0.303
same,relative viability,[9]; first compound 0.1265 µM,0.431
same,relative viability,[9]; first compound 0.4 µM,0.236
same,relative viability,[9]; first compound 1.265 µM,0.155
same,relative viability,[9]; first compound 4 µM,0.242
same,relative viability,[10]; first compound 0.04 µM,0.62
same,relative viability,[10]; first compound 0.1265 µM,0.46
same,relative viability,[10]; first compound 0.4 µM,0.38
same,relative viability,[10]; first compound 1.265 µM,0.14
same,relative viability,[10]; first compound 4 µM,0.0872
same,relative viability,[11]; first compound 0.04 µM,0.935
same,relative viability,[11]; first compound 0.1265 µM,0.591
same,relative viability,[11]; first compound 0.4 µM,1
same,relative viability,[11]; first compound 1.265 µM,0.565
same,relative viability,[11]; first compound 4 µM,0.302
same,relative viability,[12]; first compound 0.04 µM,1.02
same,relative viability,[12]; first compound 0.1265 µM,0.898
same,relative viability,[12]; first compound 0.4 µM,0.704
same,relative viability,[12]; first compound 1.265 µM,0.632
same,relative viability,[12]; first compound 4 µM,0.373
same,relative viability,[13]; first compound 0.04 µM,0.208
same,relative viability,[13]; first compound 0.1265 µM,0.21
same,relative viability,[13]; first compound 0.4 µM,0.215
same,relative viability,[13]; first compound 1.265 µM,0.127
same,relative viability,[13]; first compound 4 µM,0.105
same,relative viability,[14]; first compound 0.04 µM,0.524
same,relative viability,[14]; first compound 0.1265 µM,0.565
same,relative viability,[14]; first compound 0.4 µM,0.538
same,relative viability,[14]; first compound 1.265 µM,0.344
same,relative viability,[14]; first compound 4 µM,0.232
same,relative viability,[15]; first compound 0.04 µM,0.544
same,relative viability,[15]; first compound 0.1265 µM,0.475
same,relative viability,[15]; first compound 0.4 µM,0.588
same,relative viability,[15]; first compound 1.265 µM,0.465
same,relative viability,[15]; first compound 4 µM,0.4
same,relative viability,[16]; first compound 0.04 µM,0.292
same,relative viability,[16]; first compound 0.1265 µM,0.266
same,relative viability,[16]; first compound 1.265 µM,0.233
same,relative viability,[16]; first compound 4 µM,0.277
same,relative viability,[17]; first compound 0.04 µM,0.907
same,relative viability,[17]; first compound 0.1265 µM,0.782
same,relative viability,[17]; first compound 0.4 µM,0.817
same,relative viability,[17]; first compound 1.265 µM,0.805
same,relative viability,[17]; first compound 4 µM,0.628
same,relative viability,[18]; first compound 0.04 µM,1.11
same,relative viability,[18]; first compound 0.1265 µM,0.979
same,relative viability,[18]; first compound 0.4 µM,0.847
same,relative viability,[18]; first compound 1.265 µM,0.657
same,relative viability,[18]; first compound 4 µM,0.445
same,relative viability,[19]; first compound 0.04 µM,0.678
same,relative viability,[19]; first compound 0.1265 µM,0.412
same,relative viability,[19]; first compound 0.4 µM,0.767
same,relative viability,[19]; first compound 1.265 µM,0.526
same,relative viability,[19]; first compound 4 µM,0.41
